Values joined by “and” are separate entries in the source; they are usually repeats but may differ in a detail not shown here. Identical values can stand only once. “Also recorded” adds a separate entry of the source. Like-named read-outs stand apart in the source and are kept apart here. Blank lines part the entries; values can stand above or below the compound they belong to. Non-standard residues stand in square brackets, D forms with d. Residues, ends and D or L forms follow the SMILES beside them. *: point of attachment. NH(1-CH2NMe2-cBu) = CN(C)CC1(N*)CCC1; Oxazole4CO(2-Me) = Cc1nc(C(=O)*)co1; Benzoyl(4-F) = O=C(c1ccc(F)cc1)*; hCha = N[C@@H](CCC1CCCCC1)C(=O)O; Aib = CC(C)(N)C(=O)O; βAla = NCCC(=O)O
How the values were obtained:
[1] = tested on: Trypanosoma brucei brucei; assay: Acute mouse sleeping sickness model (in vivo antitrypanosomal activity); details: for Mean day of relapse / Mean day of survival / animals surviving until day 31: group of four mice; for Day of relapse / Parasitaemia day 7 / Parasitaemia day 10 / Parasitaemia day 14 / Parasitaemia day 17 / Parasitaemia day 21 / Parasitaemia day 24 / Parasitaemia day 28 / Parasitaemia day 31 / Survival days: individual mice; for parasitaemia on day 7: day 7 post infection; for reduction of parasitaemia compared to untreated controls: four mice; on Parasitaemia day 7: key: 0 = no parasite in 20 fields of view; ((+)) = 1 Trypanosome in 20 fields of view; (+) = 1 Trypanosome per field of view; + = 2 - 5 Trypanosomes per field of view; ++ = 6 - 20 Trypanosomes per field of view, the mouse is killed; +++ = > 20 Trypanosomes per field of view, the mouse is killed
Protocol: This model mimics the first stage of the human African trypanosomiasis. Adult female NMRI mice were purchased from Janvier (St. Berthevin, France). They weighed between 20 and 25 g at the beginning of the study and were kept under standard conditions at 22 °C and 60-70% humidity in macro Ion type III cages with food pellets and water ad libitum. The samples were first dissolved in 100% DMSO, followed by addition of distilled H2O to a final DMSO concentration of 10%. For determination of the in vivo antitrypanosomal activity, mice were infected intraperitoneally with 1 x 10^4 STIB900 bloodstream forms. […] A control group of four mice was infected, but remained untreated. The determination of the parasitaemia was done on days 7, 10, 14, 17, 21, 24, 28, and 31 post infection. To do this 6 µL of tail blood were diluted in 24 µL sodium citrate (3.2%), whereby the first µL was discarded to obtain circulating blood. Five µL of this mixture were transferred to a glass slide and covered with an 18 x 18 mm cover slide. The sample was examined under a light microscope (200-fold magnification) and parasites were counted in 3 of the 16 squares of the grid.

[2] = tested on: Trypanosoma cruzi trypomastigote forms (Tulahuen strain); assay: Intracellular Trypanosoma cruzi assay in L6-cells, beta-galactosidase/CPRG readout; assay type: cell-based; details: In vitro inhibition, read-out: T.cruzi.
Summary of the method: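 Readout was β-galactosidase cleavage of CPRG, read photometrically at 540 nm after 2–6 h colour development, giving IC50 values. Parasites: LacZ-expressing Tulahuen C2C4 strain grown in rat L6 myoblasts; run in triplicate.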

[3] = Cytotoxicity assay on L6-cells (Alamar Blue); details: rat, Cytotox L6, Cytotoxicity against rat myoblast cells (L6)
Plasmodium falciparum = assay: 3H-hypoxanthine incorporation assay against Plasmodium falciparum; assay type: cell-based; details: In vitro inhibition, read-out: P.falc NF5
Protocol: (§1) Tests were done in triplicate.
IC50 values were calculated by linear interpolation.

[4] = tested on: Axenically grown Leishmania donovani amastigotes (strain MHOM/ET/67/L82); assay: Axenic Leishmania donovani amastigote resazurin assay; assay type: cell-based; details: In vitro inhibition, read-out: L.don. ax
Summary of the method: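 IC50 values derive from resazurin fluorescence (ex 536 nm, em 588 nm), expressed relative to the negative control, after 2-4 hours of plate development. Axenic amastigotes of strain MHOM/ET/67/L82 were used; each test run in triplicate.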

[5] = tested on: Trypanosoma brucei rhodesiense (STIB 900 strain); assay: Alamar Blue assay against Trypanosoma brucei rhodesiense grown in axenic medium; assay type: cell-based; details: In vitro inhibition, read-out: T.b.rhod.
Summary of the method: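 Alamar Blue-based IC50 determination, in triplicate, on axenically grown STIB 900 trypanosomes. Melarsoprol included as reference.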

[6] = tested on: intracellular Leishmania donovani (L.don. InMac); assay: Intracellular Leishmania donovani assay (L.don. InMac); assay type: cell-based; details: In vitro inhibition
Excerpt: as §1

[7] = tested on: Plasmodium falciparum K1 strain; assay: microbe, parasite or virus in culture
Protocol: (§2) Testing of compounds against Plasmodium falciparum (K1 strain), Trypanosoma brucei rhodesiense (STIB 900 strain), Trypanosoma cruzi trypomastigote forms (Tulahuen strain), and Leishmania donovani (strain MHOM/ET/67/L82) was performed in 96 well plates at concentrations in serial dilutions. Tests were done in triplicate. IC50 values against the parasites as well as cytotoxic effects against rat myoblast (L6-cells) were determined by serial dilution and repeated twice.
Determination of activity against Plasmodium falciparum K1 strain was done using a modified version of the ^3H-hypoxanthine incorporation assay by Trager and Jensen (Trager W. and Jensen, J.B. Science 1976; 193:673-675). After incubation the plates were harvested using a Betaplate cell harvester (Wallac, Switzerland) onto glass-fiber filters and washed. The dried filters were inserted into plastic foils with 10 ml scintillation fluid. The radioactivity was counted with a Betaplate liquid scintillation counter (Wallac, Switzerland) as counts per minute per well at each drug concentration and compared to the untreated controls. […] IC50 values were calculated by linear interpolation. All assays were run in duplicate and repeated two times.

[8] = Cytotoxicity assay on L6-cells (Alamar Blue); details: rat, L6 rat myoblast cells
Protocol: as §2

rat myoblast (L6-cells) = assay: Cytotoxicity assay on L6-cells (Alamar Blue); details: Rattus norvegicus, Myoblast, 70 h
Protocol: as §2

[9] = 3 mg/kg per injection, 2 per day, 4 treatment days, i.p.
[10] = 3 mg/kg twice a day for 4 days, intraperitoneally
[11] = 30 mg/kg per injection, 1 per day, 4 treatment days, p.o.
[12] = 3 mg/kg per injection, 2 per day, 2 treatment days, i.p.
[13] = 3 mg/kg twice a day for 2 days, intraperitoneal

Structure (SMILES): Cc1nc(C(=O)N2CCC[C@H]2C(=O)N[C@@H](CCC2CCCCC2)C(=O)N[C@@H](CC(C)C)C(=O)NC(C)(C)C(=O)N[C@@H](CC(C)C)C(=O)N[C@@H](CC(C)C)C(=O)NC(C)(C)C(=O)NC(C)(C)C(=O)NCCC(=O)NC2(CN(C)C)CCC2)co1 [Compound 6025, (2S)-2-[(2S)-4-cyclohexyl-2-{[(2S)-1-(2-methyl-1,3-oxazole-4-carbonyl)pyrrolidin-2-yl]formamido}butanamido]-N-(1-{[(1S)-1-{[(1S)-1-({1-[(1-{[2-({1-[(dimethylamino)methyl]cyclobutyl}carbamoyl)ethyl]carbamoyl}-1-methylethyl)carbamoyl]-1-methylethyl}carbamoyl)-3-methylbutyl]carbamoyl}-3-methylbutyl]carbamoyl}-1-methylethyl)-4-methylpentanamide] ({Oxazole4CO(2-Me)}-P[hCha]L[Aib]LL[Aib][Aib][βAla]-{NH(1-CH2NMe2-cBu)})
Mean day of relapse [1, 9]: 15 days
Mean day of survival [1, 9]: 28 days
Day of relapse [1, 9]: 10 day and 17 day (2×)
Parasitaemia day 7 [1, 9]: 0
Parasitaemia day 10 [1, 9]: 0 (3×) and ((+)) (((+)) = 1 Trypanosome in 20 fields of view)
Parasitaemia day 14 [1, 9]: 0
Parasitaemia day 17 [1, 9]: 0 and ((+)) (((+)) = 1 Trypanosome in 20 fields of view) and ++ (++ = 6 - 20 Trypanosomes per field of view, the mouse is killed) and (+) ((+) = 1 Trypanosome per field of view)
Parasitaemia day 21 [1, 9]: 0 (2×) and (+) ((+) = 1 Trypanosome per field of view)
Parasitaemia day 24 [1, 9]: 0 (2×) and ((+)) (((+)) = 1 Trypanosome in 20 fields of view)
Parasitaemia day 28 [1, 9]: 0
Parasitaemia day 31 [1, 9]: 0 (2×) and (+) ((+) = 1 Trypanosome per field of view)
Survival days [1, 9]: 31 days (3×) and 17 days
animals surviving treatment [1, 10]: all animals survived treatment
parasitaemia on day 7 [1, 10]: no observable parasitaemia
reduction of parasitaemia compared to untreated controls [1, 10]: significant reduction of parasitaemia
animals surviving until day 31 [1, 10]: three out of four
animals with no observable parasitaemia at day 31 ([1]; 3 mg/kg twice a day for 4 days, intraperitoneally, of the three survivors): 2
Mean day of relapse [1, 11]: 15 days
Mean day of survival [1, 11]: 21 days
Day of relapse [1, 11]: 17 day (2×) and 14 day and 10 day
Parasitaemia day 7 [1, 11]: 0
Parasitaemia day 10 [1, 11]: 0 (3×) and ((+)) (((+)) = 1 Trypanosome in 20 fields of view)
Parasitaemia day 14 [1, 11]: 0 (2×) and (+) ((+) = 1 Trypanosome per field of view) (2×)
Parasitaemia day 17 [1, 11]: + (+ = 2 - 5 Trypanosomes per field of view); also recorded: ++ (++ = 6 - 20 Trypanosomes per field of view, the mouse is killed)
Parasitaemia day 21 [1, 11]: ((+)) (((+)) = 1 Trypanosome in 20 fields of view)
Parasitaemia day 24 [1, 11]: (+) ((+) = 1 Trypanosome per field of view)
Parasitaemia day 28 [1, 11]: + (+ = 2 - 5 Trypanosomes per field of view)
Parasitaemia day 31 [1, 11]: +++ (+++ = > 20 Trypanosomes per field of view, the mouse is killed)
Survival days [1, 11]: 20 days and 17 days (2×) and 31 days
animals surviving treatment ([1]; mouse, in vivo, po, 30 mg/kg): all animals survived treatment
relapse by day 17 ([1]; orally at 30 mg/kg once a day): all had relapsed
parasitaemia on day 7 ([1]; orally at 30 mg/kg once a day): no observable parasitaemia
reduction of parasitaemia compared to untreated controls ([1]; orally at 30 mg/kg once a day): significant reduction of parasitaemia
animals surviving until day 31 ([1]; orally at 30 mg/kg once a day): one
IC50 [2]: 215 nM
IC50 at 70 h [3]: 1910 nM
IC50 (Plasmodium falciparum): 20900 nM
IC50 [4]: 31300 nM
IC50 [5]: 0.5 nM
IC50 [6]: 41.1 nM

Structure (SMILES): CC(C)C[C@H](NC(=O)[C@H](CCC1CCCCC1)NC(=O)[C@@H]1CCCN1C(=O)c1ccc(F)cc1)C(=O)NC(C)(C)C(=O)N[C@@H](CC(C)C)C(=O)N[C@@H](CC(C)C)C(=O)NC(C)(C)C(=O)NC(C)(C)C(=O)NCCC(=O)NC1(CN(C)C)CCC1 [Compound 6027, (2S)-2-[(2S)-4-cyclohexyl-2-{[(2S)-1-(4-fluorobenzoyl)pyrrolidin-2-yl]formamido}butanamido]-N-(1-{[(1S)-1-{[(1S)-1-({1-[(1-{[2-({1-[(dimethylamino)methyl]cyclobutyl}carbamoyl)ethyl]carbamoyl}-1-methylethyl)carbamoyl]-1-methylethyl}carbamoyl)-3-methylbutyl]carbamoyl}-3-methylbutyl]carbamoyl}-1-methylethyl)-4-methylpentanamide] ({Benzoyl(4-F)}-P[hCha]L[Aib]LL[Aib][Aib][βAla]-{NH(1-CH2NMe2-cBu)})
Mean day of relapse [1, 12]: 17 days
Mean day of survival [1, 12]: 18 days
Day of relapse [1, 12]: 17 days
Parasitaemia day 7 [1, 12]: 0
Parasitaemia day 10 [1, 12]: 0
Parasitaemia day 14 [1, 12]: 0
Parasitaemia day 17 [1, 12]: ++ (++ = 6 - 20 Trypanosomes per field of view, the mouse is killed); also recorded: + (+ = 2 - 5 Trypanosomes per field of view)
Parasitaemia day 21 [1, 12]: ((+)) (((+)) = 1 Trypanosome in 20 fields of view)
Parasitaemia day 24 [1, 12]: ((+)) (((+)) = 1 Trypanosome in 20 fields of view)
Parasitaemia day 28 [1, 12]: (+) ((+) = 1 Trypanosome per field of view)
Parasitaemia day 31 [1, 12]: (+) ((+) = 1 Trypanosome per field of view)
Survival days [1, 12]: 17 days (2×) and 31 days and 5 days
parasitaemia by day 17 [1, 13]: all surviving animals showed parasitaemia
parasitaemia of the surviving animal at day 31 [1, 13]: low parasitaemia
animals sacrificed after parasitaemia relapse ([1]; 3 mg/kg twice a day for 2 days, intraperitoneal, after day 17): two
parasitaemia on day 7 [1, 13]: no observable parasitaemia
reduction of parasitaemia compared to untreated controls [1, 13]: significant reduction of parasitaemia
animals surviving until day 31 [1, 13]: one
animals surviving treatment ([1]; 3 mg/kg twice a day for 2 days, intraperitoneal, one death on day 5 for unspecified reasons): all animals survived treatment, except for one
IC50 [2]: 155 nM
IC50 at 70 h [3]: 1390 nM
IC50 (Plasmodium falciparum): 42500 nM
IC50 [4]: 34100 nM
IC50 [5]: 0.4 nM
IC50 [6]: 54.2 nM

IC50 ([7]; K1): 50 ± 10 nM
IC50 ([7]; K1, read-out: P.falc NF5): 6.25 nM
Structure (SMILES): CCN(CC)CCCC(C)Nc1ccnc2cc(Cl)ccc12 (stereo not drawn) [Chloroquine]

Structure (SMILES): COc1cc([C@@H]2c3cc4c(cc3[C@H](O)[C@H]3COC(=O)[C@H]23)OCO4)cc(OC)c1OC [Podophyllotoxin]
IC50 at 70 h [8]: 19.3 nM
IC50 (rat myoblast (L6-cells)): 50 ± 10 nM

Reference: EP3345917A1, “ANTIPROTOZOAL COMPOUNDS” (Bacoba AG, priority 2017, dated 2018)
